Measurements taken from patent US12569565B2, “Compositions and methods for the treatment of viral infections” (Cidara Therapeutics, Inc., priority 2018, dated 2026).
“And” between values parts separate entries of the source, which are not always exact repeats. Equal values may be shown once. Read-outs that look alike come from different tables or passages of the source.

Assays:
[1] = 1 mg/mL in 1xPBS, over a week at 60° C.; HPLC 240 nm
IAV H1N1 A/Texas/36/91 = system: IAV H1N1 A/Texas/36/91; set-up: species or system female BALB/c mice; conditions: mouse, in vivo
[2] = system: A/Puerto Rico/08/1934 (PR8), H1N1; format: in vivo, female BALB/c mice; conditions: for % Survival: 10 days
[3] = system: influenza A/WSN/1933 (H1N1); experiment: CPE assay at different multiplicities of infection (Example 94); format: cell-based, influenza A virus; conditions: read-out: EC50 H1N1 A/WSN/1933 (CPE in MDCK cells)
[4] = system: INFV A H3N2 A/Hong Kong/1/68; experiment: Lethal mouse influenza model, Study #2; format: in vivo, female BALB/c mice; conditions: 20 mg/kg PO B.I.D for 5 days from 8 h post infection
[5] = system: Influenza B/Brisbane/60/2008; set-up: species or system female BALB/c mice; conditions: mouse, in vivo
[6] = system: Influenza A/Puerto Rico/8/1934 (H1N1); set-up: species or system female BALB/c mice; conditions: mouse, in vivo
[7] = system: H1N1 A/Netherlands/602/2009; format: cell-based, influenza A virus
MDCK cells = conditions: four days post treatment, dilutions starting at 10 μM
[8] = system: Influenza A virus (INFV CA/09); format: cell-based
INFV CA/09 virus = format: cell-based, influenza virus
INFV A (A/CA/09 H1N1) = format: cell-based, influenza A virus
INFV B (B/Brisbane) = format: cell-based, influenza B virus
[9] = system: INFV A H1N1 A/Texas/36/91; experiment: Lethal mouse influenza model, Study #4 (treatment window); format: in vivo, female BALB/c mice
From the text: The experiment comprised 13 groups of 5 mice. At day 0, all mice were challenged with 1×LD90 H1N1 A/Texas/36/91. […] Vehicle (PBS) and Fc only were included as negative controls. […] All mice were monitored for survival (FIGS. 32A-32F) for 15 days after challenge.

[10] = system: INFV A H1N1 A/Texas/36/91; experiment: Lethal mouse influenza model, Study #1; format: in vivo, female BALB/c mice; conditions: 20 mg/kg B.I.D PO 5 days from 8 h post infection
[11] = system: INFV A H1N1 A/Texas/36/91; experiment: Lethal mouse influenza model, Study #3 (dosing 28 days before challenge); format: in vivo, female BALB/c mice; conditions: 20 mg/kg PO twice daily 5 days from 8 h post infection
From the text: The experiment comprised 7 groups of 5 mice. At day 0, all mice were challenged with 1×LD90 H1N1 A/Texas/36/91. Groups 1-6 received treatment IV, 28 days before challenge (Table 12). Vehicle (PBS) was included as an additional negative control. […] All mice were monitored for survival (FIGS. 31A-31F) for 15 days after challenge.

C#CCOCCOCCOCCOCCNC(=O)O[C@@H]([C@@H]1OC(C(=O)O)=C[C@H](NC(=N)N)[C@H]1NC(C)=O)[C@H](O)CO [Int-4]
degredation [1]: 15%

CCOC(=O)C1=C[C@@H](OC(CC)CC)[C@H](NC(C)=O)[C@@H](N)C1 [Oseltamivir, oseltamivir]
% Survival (Day 14) (IAV H1N1 A/Texas/36/91): 100% | % Survival [2]: 20% | EC50 ([3]; MOI 0.001): 525 nM | EC50 ([3]; MOI 0.01): 1900 nM | EC50 ([3]; MOI 0.1): > 10000 nM | EC50 ([3]; MOI 1): > 10000 nM | % Survival [4]: 80% | Body weights [5]: 89 gm and 85 gm and 79 gm and 100 gm and 98 gm and 97 gm | survival [5]: 40% | Log reduction (PFU/mL) [6]: 0.24 and 0.52 | EC100 (CPE in MDCK cells) [7]: ~1000 nM

O=C1c2c(O)c(=O)ccn2N([C@@H]2c3ccccc3SCc3c2ccc(F)c3F)[C@@H]2COCCN12 [baloxavir]
EC50 ([3]; Influenza A virus, MDCK, MOI 0.001): 5 nM | EC50 ([3]; Influenza A virus, MDCK, MOI 0.01): 4 nM | EC50 ([3]; Influenza A virus, MDCK, MOI 0.1): 79 nM | EC50 ([3]; Influenza A virus, MDCK, MOI 1): > 100 nM

CC(=O)N[C@H]1[C@H]([C@H](O)[C@H](O)CO)OC(C(=O)O)=C[C@@H]1N=C(N)N [Zanamivir, zanamivir]
CC50 (MDCK cells): > 10000 nM | EC50 [8]: 496 nM | EC50 (INFV CA/09 virus): 469 nM | EC50 ([3]; MOI 0.001): 137 nM | EC50 ([3]; MOI 0.01): 938 nM | EC50 ([3]; MOI 0.1): > 10000 nM | EC50 ([3]; MOI 1): > 10000 nM | EC50 (INFV A (A/CA/09 H1N1)): 265 nM | EC50 (INFV B (B/Brisbane)): 383 nM

CCOC(=O)C1=C[C@@H](OC(CC)CC)[C@H](NC(C)=O)[C@@H](N)C1 [Oseltamivir phosphate]
survival ([9]; 20 mg/kg PO bid × 5 days initiated at 48 hrs post-infection): 0% | survival ([9]; 20 mg/kg PO bid × 5 days initiated at 72 hrs post-infection): 20% | Mean Survival [4]: 15 days | % Survival [10]: 100% | Mean Survival [10]: 15 | survival [11]: survived

CC(=O)N[C@H]1[C@H]([C@H](OCC(=O)NCCCCNCCCCNC(=O)CO[C@@H]([C@@H]2OC(C(=O)O)=C[C@H](NC(=N)N)[C@H]2NC(C)=O)[C@H](O)CO)[C@H](O)CO)OC(C(=O)O)=C[C@@H]1NC(=N)N [Int-11]
% Survival [2]: 0% | % Survival ([2]; 15 mg/kg): 100% | delay in death relative to vehicle and hIgG1 Fc only controls ([2]; mouse, in vivo): ≤ 2 days | greater cumulative dose required for efficacy equivalent to conjugate 6 (mass basis) ([2]; mouse, in vivo): 500 ×

C#CCOCCOCCOCCOCCN(C)C(=O)O[C@@H]([C@H]1OC(C(=O)O)=C[C@@H](NC(=N)N)[C@@H]1NC(C)=O)[C@H](O)CO [Int-80]
degredation [1]: less than 1%
